# What was measured:
# Test in all cases: relative viability (nuclei count vs DMSO), 5 days (fraction); higher = more cells survive
# [1] = compound: C[C@@H](C(=O)N[C@@H](C1CCCCC1)C(=O)N2CCC[C@H]2C(=O)N[C@@H]3[C@@H](CC4=CC=CC=C34)OCC#CC#CCO[C@@H]5CC6=CC=CC=C6[C@@H]5NC(=O)[C@@H]7CCCN7C(=O)[C@H](C8CCCCC8)NC(=O)[C@H](C)NC)NC [AZD5582] + O=C(c1cc(Cc2n[nH]c(=O)c3ccccc23)ccc1F)N1CCN(C(=O)C2CC2)CC1 [Olaparib] (partner 8 µM)
# Method in brief: (§1)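 One day after seeding in 1536-well plates, lung cancer cell lines were dosed by pin tool. Dosing was either single-drug or a fixed anchor-drug dose plus five library-drug doses (not always all listed) in √10 steps. After 5 days, nuclei were stained in one fix-and-stain step and counted on 4× images, and relative viability is the nuclei count of treated wells over that of vehicle wells, given as the median of duplicate plates.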
# [2] = compound: Cn1nnc2c(C(N)=O)ncn2c1=O [Temozolomide] + COc1cccc2cc(-c3nc([C@H]4CC[C@H](C(=O)O)CC4)n4ncnc(N)c34)[nH]c12 [OSI-027] (partner 0.5 µM)
# Method in brief: as §1
# [3] = compound: Cn1nnc2c(C(N)=O)ncn2c1=O [Temozolomide] + C[C@@H](Oc1cc(-c2cnn(C3CCNCC3)c2)cnc1N)c1c(Cl)ccc(F)c1Cl [Crizotinib] (partner 1 µM)
# Method in brief: as §1
# [4] = compound: Cn1nnc2c(C(N)=O)ncn2c1=O [Temozolomide] + CC(=O)Nc1cccc(-n2c(=O)n(C3CC3)c(=O)c3c(Nc4ccc(I)cc4F)n(C)c(=O)c(C)c32)c1 [Trametinib] (partner 0.02 µM)
# Method in brief: as §1
Cell Line,relative viability ([1]; first compound 0.001581 µM),relative viability ([1]; first compound 0.005 µM),relative viability ([1]; first compound 0.01581 µM),relative viability ([1]; first compound 0.05 µM),relative viability ([2]; first compound 0.2 µM),relative viability ([2]; first compound 0.6325 µM),relative viability ([2]; first compound 2 µM),relative viability ([2]; first compound 6.325 µM),relative viability ([2]; first compound 20 µM),relative viability ([3]; first compound 0.2 µM),relative viability ([3]; first compound 0.6325 µM),relative viability ([3]; first compound 2 µM),relative viability ([3]; first compound 6.325 µM),relative viability ([3]; first compound 20 µM),relative viability ([4]; first compound 0.2 µM),relative viability ([4]; first compound 0.6325 µM),relative viability ([4]; first compound 2 µM),relative viability ([4]; first compound 6.325 µM),relative viability ([4]; first compound 20 µM)
CAL-12T,0.558,0.534,0.636,0.373,0.728,0.712,0.914,0.608,0.657,0.93,0.744,0.587,0.695,0.733,0.285,0.369,0.337,0.418,0.268
HCC-44,0.942,0.958,0.949,0.903,0.682,0.425,0.477,0.494,0.477,0.786,0.796,0.791,0.831,0.826,1.06,1.16,1.08,1.05,0.956
A-427,0.678,0.716,0.729,0.59,0.481,0.4,0.507,0.365,0.299,0.927,0.775,0.815,0.594,0.428,0.807,0.711,0.69,0.502,0.458
NCI-H1666,0.766,0.745,0.674,0.77,0.81,0.822,0.789,0.65,0.672,0.888,0.858,0.698,0.648,0.518,0.828,0.871,0.739,0.809,0.732
HCC-78,0.869,0.859,0.598,0.791,0.347,0.349,0.362,0.383,0.349,0.293,0.331,0.382,0.361,0.248,0.602,0.793,0.646,,0.736
HCC-366,0.292,0.428,0.353,0.44,0.865,0.856,1.03,0.879,0.921,0.519,0.604,0.402,0.622,0.447,0.395,0.31,0.427,0.425,0.329
EPLC-272H,,,0.955,0.0712,0.257,0.279,0.295,0.291,0.216,0.851,0.986,0.925,0.962,0.728,0.241,0.279,0.338,0.324,0.277
NCI-H1755,0.843,0.966,0.938,0.939,0.76,0.758,0.743,0.673,0.637,1,0.894,0.894,0.805,0.678,0.81,0.761,0.718,0.664,0.549
SK-MES-1,0.653,0.515,0.792,0.605,0.694,0.624,0.642,0.591,0.65,1.14,0.969,1.03,0.947,0.997,0.656,0.578,0.663,0.539,0.58
NCI-H838,0.744,0.811,0.711,0.743,0.426,0.485,0.397,0.419,0.411,0.876,0.888,0.894,0.808,0.869,0.498,0.559,0.586,0.482,0.585
NCI-H2170,0.561,0.543,0.628,0.688,,0.825,0.875,0.575,0.34,,1.26,1.21,0.999,0.494,,0.984,0.902,0.876,0.348
HCC-827,0.662,0.807,0.626,0.68,0.45,0.756,0.8,0.73,0.133,0.992,0.932,0.932,0.902,0.172,0.56,0.593,0.286,0.532,0.136
NCI-H1793,0.674,1.08,0.75,1.23,,0.279,0.27,0.245,0.232,,,,,,,0.463,0.465,0.335,0.414
NCI-H441,0.504,0.541,0.603,0.395,0.597,0.85,0.846,0.523,0.651,0.717,0.824,0.775,0.766,0.78,0.543,0.642,0.478,0.425,0.459
H3255,0.489,0.598,0.553,0.481,,0.656,0.606,0.569,0.208,,0.822,0.795,0.798,0.179,,0.62,0.656,0.63,0.214
ABC-1,0.845,0.724,0.891,0.976,0.554,0.513,0.564,0.517,0.585,1.11,0.91,1.14,1.17,1.34,,,,,
201T,0.916,0.904,0.778,0.989,0.77,0.716,0.583,0.769,0.794,1.02,1.09,1.08,0.834,0.986,0.707,0.72,0.725,0.681,0.714
NCI-H596,0.566,,0.802,0.252,0.835,0.76,0.692,0.691,0.835,1.07,0.978,1.06,1.04,0.884,0.916,0.714,0.943,0.789,0.877

# Source: the supplement of paper PMC10307832
